Here are results for one molecule from patent US5912161A, “Enzymes for the production of 2-keto-L-gulonic acid” (priority 1996, dated 1999).

The target in assay [1] is T1, Corynebacterium sp. (ATCC 31090) 2,5-DKG reductase A, wild type, SEQ ID NO:1 (Corynebacterium sp., UniProt P06632).
T1 construct: made in house; host or cells: Acetobacter cerinus
Kind of assay: Kinetic characterization of purified wild-type 2,5-DKG reductase A (NADPH oxidation at 340 nm). Type of assay: biochemical. The conditions noted are these: wild-type enzyme, 50 mM tris, pH 7.0, 0.2 mM NADPH, 25° C. How it is done:
(§1) The preparations of wild-type and mutant Q192R 2,5-DKG reductase A enzymes were characterized kinetically as to their ability to reduce the substrate 2,5-DKG to 2-KLG. Assays were done in 1 ml total volume of 50 mM tris, pH 7.0, containing 0.2 mM NADPH, a constant amount of enzyme ([…]) and amounts of substrate varying from 2 to 14 mM. The assays were done at 25° C., and the rate of substrate reduction was measured spectrophotometrically by measuring the loss of absorbance at 340 nm wavelength (which is indicative of the oxidation of the cofactor NADPH to NADP+).
(§2) The data were analyzed according to the well-known Michaelis equation to determine the kinetic parameters Vmax and Km using the Enzfit software package (Biosoft, Cambridge, UK) on a Epson desktop computer.

The target of assay [2] is T2, Corynebacterium sp. 2,5-DKG reductase A mutant Q192R (arginine for glutamine at position 192) (Corynebacterium sp., UniProt P06632, Q192R).
T2 construct: made in house; host or cells: Acetobacter cerinus
T2 sequence (P06632 whole entry Q192R): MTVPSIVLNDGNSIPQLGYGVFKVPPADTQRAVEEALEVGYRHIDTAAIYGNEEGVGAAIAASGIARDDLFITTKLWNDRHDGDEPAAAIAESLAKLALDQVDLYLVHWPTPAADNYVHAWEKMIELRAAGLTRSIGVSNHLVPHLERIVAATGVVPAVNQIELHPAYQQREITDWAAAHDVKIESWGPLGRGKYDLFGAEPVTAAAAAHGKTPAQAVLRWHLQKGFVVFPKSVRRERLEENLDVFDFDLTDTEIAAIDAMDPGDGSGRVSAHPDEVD
Kind of assay: Kinetic characterization of purified mutant Q192R 2,5-DKG reductase A (NADPH oxidation at 340 nm). The assay is classed as biochemical. Conditions: 50 mM tris, pH 7.0, 0.2 mM NADPH, 25° C. As for the experimental part: as §1, §2

SMILES strings stand for the structures.

T1 sequence (P06632 whole entry): as the sequence (P06632 whole entry Q192R) above, with R192Q counted along it

As to `O=C(O)C(=O)[C@@H](O)[C@H](O)C(=O)CO` [2,5-DKG, 2,5-diketo-D-gluconic acid], the “specificity constant (kcat/Km)” value in assay [1] was 140 M⁻¹ s⁻¹; in assay [2], 335 M⁻¹ s⁻¹. The figures for the “Vmax for the 2,5-DKG substrate” value in assay [1] (substrate 2 to 14 mM) and in assay [2] (substrate 2 to 14 mM) were 7.8 μmoles per minute per milligram of protein and 14.0 μmoles per minute per milligram of protein, respectively. For the same molecule, the Km was 28 mM in assay [1] (substrate 2 to 14 mM, read-out: Km or Michaelis constant) and 21 mM in assay [2] (substrate 2 to 14 mM).

In general, Km refers to the substrate concentration at which the rate is half of its maximum.
